Measurements: US12268677B2, “4-aminopyridine (4-AP) and bone morphogenetic protein 2 (BMP-2)” (The Penn State Research Foundation, priority 2022, dated 2025)

Tests used:
[1] = system: BMP-2 gene expression in human bone marrow mesenchymal stem cells (hBMSCs); test: BMP-2 gene expression in hBMSCs by quantitative real-time PCR; assay type: cell-based; conditions: 1000 μM 4-AP
Procedure: FIG. 1. 4-AP upregulates BMP-2 expression in human bone marrow mesenchymal stem cells (hBMSCs). hBMSCs were incubated in Dulbecco's modified Eagle's medium supplemented with 10% FBS and penicillin/streptomycin (100 U/mL penicillin and […] streptomycin) in the presence of 1000 μM 4-AP induced expression of BMP-2 gene. BMP-2 gene expression was increased at day 3 and remained high at day 7 and day 14. The gene expression levels of BMP-2 were normalized with β-actin and were then used to calculate fold change in 4-AP treated compared to control. Data are presented as mean±SEM (n=3). Values are significant at *p<0.05, **p<0.01. Abbreviations used; BMP-2 —bone morphogenetic protein-2. Human bone marrow mesenchymal stem cells (hBMSC) were cultured in growth medium supplemented with 4-AP for 3, 7, and 14 days. Total RNA was isolated from the cells at the end of treatment, converted to cDNA, and the gene expression of bone morphogenetic protein-2 (BMP-2) was analyzed by quantitative real-time PCR. Gene expression by quantitative real-time PCR: Quantitative real-time PCR was carried out to determine gene expression of BMP-2 by hBMSCs incubated in Dulbecco's modified Eagle's medium with 10% fetal bovine serum (FBS) and penicillin/streptomycin (100 U/mL penicillin and […] streptomycin) at a humidified atmosphere of 5% CO2 under 37° C. Cell cultures were supplemented with 1000 μM 4-AP for 3, 7, and 14 days. Total RNA was isolated from the cells and converted to cDNA using verso cDNA synthesis kit (Thermo Fischer Scientific). The cDNA obtained was analyzed in a quantitative real-time PCR (FIG. 1).

[2] = system: BMP-2 protein in hBMSCs; test: BMP-2 protein level in hBMSCs by western blot; assay type: cell-based, human; conditions: 1000 μM 4-AP
Procedure: FIGS. 2A-2B. Western blot analysis of BMP-2 protein. Incubation of hBMSCs in Dulbecco's modified Eagle's medium supplemented with 10% FBS and penicillin/streptomycin (100 U/mL penicillin and […] streptomycin) in the presence of 1000 μM 4-AP increased BMP-2 protein at day 3, 7, and 14. The blots were stripped and reprobed with anti-GAPDH antibody. FIG. 2A: Representative image of a western blot of BMP-2 at day 3, 7, and 14. FIG. 2B: Densitometric analysis was carried out and the BMP-2 was normalized with GAPDH to calculate fold change. Data are presented as mean±SEM (n=3). Values are significant at *p<0.05, Abbreviations used; 4—AP-4-aminopyridine, BMP-2—bone morphogenetic protein-2, GAPDH-glyceraldehyde-3-phosphate dehydrogenase. Protein level by western blot: Total protein was extracted from hBMSCs with RIPA lysis buffer at the end of 3, 7, and 14 days of 4-AP treatment. The protein concentrations of cell lysates were determined using Pierce BCA Protein Assay kit (Thermo Fischer Scientific). Total cell lysates containing equal amounts of protein were denatured with SDS reducing buffer. The denatured proteins were separated on 10% polyacrylamide gel and transferred to a PVDF membrane. The blots were blocked and probed with primary and secondary antibodies, followed by visualization of bands by chemiluminescence peroxidase substrate. The BMP-2 band intensities were analyzed by ImageJ software (FIGS. 2A and 2B).

[3] = system: tibial fracture in C57BL/6J mice; test: Mid-diaphysis tibial fracture healing in mice, micro-CT analysis of callus; assay type: in vivo
Source text: 8 week old C57Bl/6J mice were subjected to mid-diaphysis tibial fracture, treated with 4-AP for 21 days, and harvested. FIG. 4A: Representative X-ray images at the end of 21 days of 4-AP treatment. FIG. 4B: Representative micro-CT images of tibia fracture on day 21. […] FIG. 4D: Graphical presentation of Micro CT analysis of bone mineral density (BMD), and bone volume density (BV/TV). Data are presented as mean±SEM (n=6). Values are significant at *p<0.05.
Ten-week-old male C57/BL6J mice were purchased from the Jackson laboratory (Bar Harbor, ME, USA) and were maintained in a 12-h light, 12-h dark cycle at 21.1° C. to 22.8° C. After acclimatization, all mice were randomly divided in to two groups: 1) control and 2) 4-AP.
A mid diaphysis tibial fracture was performed in ten-week-old male mice. After the mice were anesthetized with ketamine/xylazine, a 5 mm longitudinal incision will be made at the front of the proximal tibia. The mid diaphysis of the tibia will be identified, and an osteotomy will be created with a No. 11 scalpel blade preventing any comminution. A 27G hypodermic needle will be introduced into the tibial canal for intramedullary fixation. Buprenorphine was given as post-operative analgesia. X-ray images were acquired post-operatively and mice received saline or 4-AP on the same day. Control group received 100 μl of saline, and a 4-AP group received 40 μg/mouse/daily 4-AP (1.6 mg/kg) in saline intraperitoneally until day 21 post-surgery.
For micro-CT analysis, tibia of control and 4-AP mice were dissected of soft tissue and fixed in neutral buffered formalin. μCT scanning was conducted using a Scanco vivaCT 40. […] Callus area from control and 4-AP mice tibia were assessed for bone mineral density (BMD) and percent bone volume per total volume (% BV/TV).
Tibial fracture was performed in C57BL/6J mice, which were then treated with 4-AP for 21 days for the evaluation of fracture healing parameters. The bone mineral density and bone volume density were determined by micro-CT analysis at the end of 21 days 4-AP treatment.

[4] = system: BMP-2 gene expression in human fetal osteoblasts (hFOB); test: BMP-2 gene expression in human fetal osteoblasts (hFOB) by quantitative real-time PCR; assay type: cell-based; conditions: 1000 μM 4-AP for 3 days, normalized with β-actin
Procedure: FIG. 3. 4-AP upregulates BMP-2 gene expression in human fetal osteoblasts (hFOB). […] The gene expression levels were normalized with β-actin and was then used to calculate fold change in 4-AP treated compared to control. Data are presented as mean±SEM (n=3). Values are significant at *p<0.05. Abbreviations used; 4-AP—4-aminopyridine. Human fetal osteoblasts (hFOB) were cultured in growth medium supplemented with 4-AP for 3 days. Total RNA was isolated from the cells at the end of treatment, converted to cDNA, and the gene expression of bone morphogenetic protein-2 (BMP-2) was analyzed by quantitative real-time PCR (FIG. 3).

[5] = C57BL/6J mice, tibial fracture, 40 μg/mouse/daily 4-AP (1.6 mg/kg) intraperitoneally, 21 days, micro-CT, compared to saline treated controls

Nc1ccncc1 [4-AP, 4-aminopyridine]
BMP-2 gene expression (fold change vs control, normalized with β-actin) ([1]; day 3): increased
BMP-2 gene expression (fold change vs control, normalized with β-actin) ([1]; day 7): remained high
BMP-2 gene expression (fold change vs control, normalized with β-actin) ([1]; day 14): remained high
BMP-2 protein (western blot, normalized with GAPDH) ([2]; day 3): increased
BMP-2 protein (western blot, normalized with GAPDH) ([2]; day 7): increased
BMP-2 protein (western blot, normalized with GAPDH) ([2]; day 14): increased
bone mineral density within the callus area [3, 5]: higher
bone volume density (BV/TV) within the callus area [3, 5]: higher
bone fracture healing ([3]; C57Bl/6J mice, mid-diaphysis tibial fracture, treated with 4-AP for 21 days): enhanced
expression of BMP-2 compared with the control group [4]: significantly increased
